Patent publication US11890285B2, “Combination therapies” (Mirati Therapeutics, Inc., priority 2019, dated 2024)
Where “and” joins values, the source holds several entries; their conditions need not be identical. Equal values may be shown once.

Legend:
[1] = tested on: CT26.WT KRas G12C E3 clone tumors; assay: Tumor volumes of CT26.WT KRas G12C E3 clone tumor bearing mice, single agents and combination; format: in vivo, BALBc mice
Procedure: (§1) BALBc mice were inoculated in the right hind flank with 1×10^6 CT26.WT KRas G12C E3 cells harboring the KRas G12C mutation, and tumor volumes were measured using a caliper every two-three days and tumor volumes were calculated by the formula: […].
(§2) When tumor volumes reached between 200-400 mm^3 in size (Study Day 0), the mice were divided into four groups of 5 mice each. The first group was daily administered vehicle (10% Captisol in 50 mM citrate buffer pH 5.0) through Study Day 15 and also administered i.p. vehicle (BioXcel diluent) on Study Days 1, 4 and 7. The second group was […] a 10 mg/kg i.p. dose of the murine anti-PD-1 antibody (F26, BioXcel) at Days 1, 4 and 7.
At Study Day 39, four tumor-free mice from the combination group were rechallenged 1×10^6 CT26.WT KRas G12C E3 cells in the opposite left flank and mice were monitored for tumor growth for a period of twenty four days to determine whether a durable, adaptive immune response was observed.

[2] = tested on: CT26.WT KRas G12C E3 clone tumors; assay: Repeat study: tumor volumes of CT26.WT KRas G12C E3 clone tumor bearing mice, 10 animals per group; format: in vivo, BALBc mice; settings: for Tumor volume: individual mice
Procedure: as §1
In the second study the number of treated mice was increased from 5 animals per group to 10 animals per group.
as §2, with “volumes reach” for “volumes reached”, “of 10” for “of 5”, “Day 10” for “Day 15”

C=C(F)C(=O)N1CCN(c2nc(OC[C@@H]3CCCN3C)nc3c2CCN(c2cccc4cccc(Cl)c24)C3)C[C@@H]1CC#N [Example 478]
mice achieving a complete response ([1]; 5 mice per group): all five treated mice achieving a complete response after nine days of administration
tumor regrowth / time without a detectable tumor ([1]; Example 478 stopped at Study Day 29): eventually tumor growth was detected at the original site of implantation in all five mice
mice achieving a complete response ([2]; 10 mice per group): all ten treated mice achieving a complete response
tumor regrowth / time without a detectable tumor ([2]; Example 478 stopped at Study Day 25): eventually tumor growth was detected in 6 out of 9 mice at the original site of implantation
Tumor volume ([2]; Study Day 14, original implantation site (R), Example 478 100 mg/kg, F26 10 mg/kg i.p., listed as Example 47): 0 mm^3 (9×) and 4 mm^3
Tumor volume ([2]; Study Day 17, original implantation site (R), Example 478 100 mg/kg, F26 10 mg/kg i.p., listed as Example 47): 0 mm^3 (8×) and 32 mm^3
Tumor volume ([2]; Study Day 19, original implantation site (R), Example 478 100 mg/kg, F26 10 mg/kg i.p., listed as Example 47): 51 mm^3 and 0 mm^3 (5×) and 875 mm^3 and 32 mm^3 and 371 mm^3 and 63 mm^3
Tumor volume ([2]; Study Day 21, original implantation site (R), Example 478 100 mg/kg, F26 10 mg/kg i.p., listed as Example 47): 268 mm^3 and 0 mm^3 (5×) and 1320 mm^3 and 139 mm^3 and 762 mm^3 and 274 mm^3
Tumor volume ([2]; Study Day 24, original implantation site (R), Example 478 100 mg/kg, F26 10 mg/kg i.p., listed as Example 47): 877 mm^3 and 0 mm^3 (5×) and 2470 mm^3 and 588 mm^3 and 1498 mm^3 and 291 mm^3
Tumor volume ([2]; Study Day 26, original implantation site (R), Example 478 100 mg/kg, F26 10 mg/kg i.p., listed as Example 47): 1237 mm^3 and 0 mm^3 (4×) and 923 mm^3 and 1699 mm^3 and 14 mm^3
Tumor volume ([2]; Study Day 28, original implantation site (R), Example 478 100 mg/kg, F26 10 mg/kg i.p., listed as Example 47): 1371 mm^3 and 0 mm^3 (4×) and 1056 mm^3 and 2035 mm^3 and 14 mm^3
Tumor volume ([2]; Study Day 31, original implantation site (R), Example 478 100 mg/kg, F26 10 mg/kg i.p., listed as Example 47): 2334 mm^3 and 0R 0L mm^3 (4×) and 2113 mm^3 and 161 mm^3
Tumor volume ([2]; Study Day 31, site of re-challenge (L)): 0R 0L mm^3
Tumor volume ([2]; Study Day 33, original implantation site (R), Example 478 100 mg/kg, F26 10 mg/kg i.p., listed as Example 47): 0R 0L mm^3 and 289 mm^3 and 63 mm^3 and 32 mm^3 and 4 mm^3
Tumor volume ([2]; Study Day 33, site of re-challenge (L), listed as Example 47): 0R 0L mm^3 and 0 mm^3 (3×)
Tumor volume ([2]; Study Day 38, original implantation site (R), Example 478 100 mg/kg, F26 10 mg/kg i.p., listed as Example 47): 0R 0L mm^3 and 425 mm^3 and 318 mm^3 and 124 mm^3 and 63 mm^3
Tumor volume ([2]; Study Day 38, site of re-challenge (L), listed as Example 47): 0R 0L mm^3 and 0 mm^3 (3×)
Tumor volume ([2]; Study Day 40, original implantation site (R), Example 478 100 mg/kg, F26 10 mg/kg i.p., listed as Example 47): 0R 0L mm^3 and 464 mm^3 and 511 mm^3
Tumor volume ([2]; Study Day 40, site of re-challenge (L), listed as Example 47): 0R 0L mm^3 and 0 mm^3 (2×)
